The values that follow are results of earlier work, collected in patent US9339460B2, “Self-emulsifiable liquid florfenicol composition intended to be incorporated into the drinking water of livestock” (VIRBAC SA, priority 2007, dated 2016).

For the series the following is noted: in water.

In the case of `CS(=O)(=O)c1ccc([C@@H](O)[C@@H](CF)NC(=O)C(Cl)Cl)cc1` [Florfenicol], the “"miscibility" of Florfenicol” value was 12 g/L.
